According to patent US20140364449A1 (priority 2012, published 2014):
Read-outs that look alike come from different tables or passages of the source.

Key:
mu-opioid receptor [1] = molecular target: T1, mu-opioid receptor (Rattus norvegicus, UniProt P33535); assay type: binding
T1 construct: expressed in transfected cells; host or cells: HEK293 cells, transient transfection

mu-opioid receptor [2] = molecular target: T1, mu-opioid receptor; assay type: cell-based

T1 sequence (P33535 whole entry): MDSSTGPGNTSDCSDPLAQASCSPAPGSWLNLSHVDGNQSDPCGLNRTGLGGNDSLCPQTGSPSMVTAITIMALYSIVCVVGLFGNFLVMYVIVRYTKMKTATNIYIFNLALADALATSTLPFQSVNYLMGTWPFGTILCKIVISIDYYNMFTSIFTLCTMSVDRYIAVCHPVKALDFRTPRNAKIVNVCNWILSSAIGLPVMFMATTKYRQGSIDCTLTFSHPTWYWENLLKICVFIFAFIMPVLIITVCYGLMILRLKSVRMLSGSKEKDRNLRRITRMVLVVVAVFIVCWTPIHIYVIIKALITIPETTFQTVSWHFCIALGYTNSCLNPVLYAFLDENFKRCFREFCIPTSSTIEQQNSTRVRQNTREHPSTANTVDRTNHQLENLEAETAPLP

C[C@@H](NC(=O)[C@@H](N)Cc1ccc(O)cc1)C(=O)NCC(=O)N(C)[C@@H](Cc1ccccc1)C(=O)NCCO [DAMGO, (D-Ala^2, N-MePhe^4, Gly^5-ol)-enkephalin]
Affinity and number of binding sites, pH dependence (mu-opioid receptor [1]): slightly (nonsignificantly) lower at pH 5.5 compared to pH 7.5 | ^3H-DAMGO Bmax (mu-opioid receptor [1]; pH 5.5): 14.04 fmol/mg | ^3H-DAMGO Bmax (mu-opioid receptor [1]; pH 6.5): 15.50 fmol/mg | ^3H-DAMGO Bmax (mu-opioid receptor [1]; pH 7.5): 23.95 fmol/mg | cAMP (% baseline) (mu-opioid receptor [2]; pH 5): 43 ± 6 % baseline | cAMP (% baseline) (mu-opioid receptor [2]; pH 6.5): 68 ± 9 % baseline | Suppression of FSK/IBMX-stimulated cAMP, pH dependence (mu-opioid receptor [2]; pH 7.5): markedly stronger at pH 5.0 than at pH 7.5 | cAMP (% baseline) (mu-opioid receptor [2]; pH 7.5): 82 ± 7 % baseline
